Results from patent US8658668B2, “PI3 kinase/mTOR dual inhibitor” (Eli Lilly and Company, priority 2011, dated 2014).

Key:
AKT1(pS473) = assay: AlphaScreen SureFire p-AKT (Ser473) in U87MG cells; assay type: cell-based; settings: Homo sapiens, U-87 MG, 1 h, n = 4, read-out: AKT1(pS473) Absolute IC50
Method: This homogeneous assay format uses immuno-sandwich capture of the phosphorylated analyte and then detection with antibody-coated Alphascreen beads to generate an amplified signal.
Maintain U87MG cells in U87MG growth medium consisting of DMEM (GIBCO 11965-092) supplemented with 10% fetal bovine serum (FBS, GIBCO, 10091-141), 1% nonessential amino acids (GIBCO, 11140-050) and 1% sodium pyruvate (GIBCO, 11360-070). Harvest cells using standard cell culture procedures and then count using Vi-Cell. Plate 100 μL of U87MG cells in growth medium (50,000 cells/well) into Costar #3596 96 well plates and incubate overnight at 37° C., 5% CO2.
Incubate for one h at 37° C., then remove the medium and add 50 μL of 1× SureFire Lysis Buffer (TGR Biosciences SureFire® Kit component) to each well and incubate at room temperature for 10 min with gentle shaking Transfer 6 μL lysate and 10 μL reaction mixture (60 parts reaction buffer/10 parts activation buffer/1 part each of donor and acceptor beads, Perkin Elmer, 6760617R) to a 384 well proxiplate (Perkin Elmer, 6006280) for the p-p70S6 kinase (Thr389) and p-AKT(Ser473) assays. Seal the plate and incubate at RT for 4 h. […] Read the plates on a Perkin Elmer EnVision equipped with a TurboModule using standard AlphaScreen® settings (Ex680 nm and Em520-620 nm). […]

pT308 AKT = assay: In vivo target inhibition in U87MG tumors, pT308 AKT; settings: Mus musculus, U-87 MG; for inhibition at 0.5 mg/kg: 0.5 mg/kg oral; for inhibition at 1.5 mg/kg: 1.5 mg/kg oral; for inhibition at 3 mg/kg: 3 mg/kg oral; for inhibition at 6 mg/kg: 6 mg/kg oral; for inhibition at 10 mg/kg: 10 mg/kg oral; for inhibition at 12 mg/kg: 12 mg/kg oral
Method: Implant U87MG human glioblastoma cells (5×10^6) subcutaneously into the flank of athymic nude mice in 0.2 mL of matrigel. Ten days post-implantation, dose mice orally according to a time course, single dose/single time point, or dose response protocol for the determination of TMED50 (threshold minimum effective dose). Flash freeze tumors at harvest and collect blood for the determination of parent compound plasma exposure and the calculation of TMEC50 (threshold minimum effective concentration) in the case of dose response studies. Homogenize tumors in 500 μL of XY Lysis Buffer (10 μg/mL Leupeptin, 10 μg/mL Trypsin-Chymotrypsin Inhibitor, 10 μg/mL Tosyl phenyl-alanyl chloromethyl ketone, 10 μg/mL Aprotinin, 60 mM Beta-Glycerol Phosphate, 1% Triton X100, 25 mM Tris pH 7.5, 2.5 mM Pyrophosphate, 150 mM NaCl, 2 mM p-tosyl-L-arginine methyl ester, 15 mM para-nitrophenyl phosphate, 5 mM benzamidine, 1 mM sodium vanadate, 10 mM sodium fluoride, 50 μg/mL phenyl-methane sulfonyl fluoride, 1 mM 1,4-dithiothreitol (DTT), 15 mM EDTA pH 8.0, 5 mM EGTA pH 8.0, 1 μM Microcystin, 1 μM Okadaic Acid, and 1 Roche Complete protease inhibitor mini-tablet per 10 mL) using RNase Free Pellet Pestle (Kimble-Kontes). Aliquot lysates and either assay immediately or store at −80° C. for later testing. Use the multiplex format of Meso Scale Discovery (Gaithersburg, Md.) ELISA technology and measure in vivo target inhibition of PI3K and mTOR to assess effects on phosphorylation of the threonine 308 site of AKT, a downstream effector of PI3K; phosphorylation on the threonine 389 site of p70 S6K and on the serine 240/244 site of S6RP, downstream effectors of mTORC1; phosphorylation of the serine 473 site of AKT, a downstream effector of mTORC2. Add 20 μg of lysate to carbon electrode containing 96-well plates pre-spotted with the appropriate capture antibodies. Probe the protein of interest using a ruthenium labeled detection antibody. Pass current over the electrode in the presence of read buffer containing the co-reactant TPA, and quantitate and record the light generated by electro-chemiluminescence with the MSD Sector 6000 instrument. Calculate percent inhibitions relative to the vehicle control group and perform ANOVA analysis using the JMP software package for the determination of statistical significance.

## CO[C@@H](C)Cn1c(=O)n(C)c2cnc3ccc(-c4cncc(C(C)(C)O)c4)cc3c21 [Example 1, 8-[5-(1-Hydroxy-1-methylethyl)pyridin-3-yl]-1-[(2S)-2-methoxypropyl]-3-methyl-1,3-dihydro-2H-imidazo[4,5-c]quinolin-2-one]
AKT1(pS473)
  IC50: 94.2 nM
pT308 AKT; 0.5 hr post dose
  inhibition at 0.5 mg/kg: 23%
  inhibition at 1.5 mg/kg: 28%
  inhibition at 3 mg/kg: 43%
  inhibition at 6 mg/kg: 61%
  inhibition at 10 mg/kg: 88%
  inhibition at 12 mg/kg: 79%
pT308 AKT; 4 hr post dose
  inhibition at 0.5 mg/kg: 1%
  inhibition at 1.5 mg/kg: -8%
  inhibition at 3 mg/kg: -2%
  inhibition at 6 mg/kg: 1%
  inhibition at 10 mg/kg: 44%
  inhibition at 12 mg/kg: 43%
pT308 AKT; 0.25 hr post dose
  inhibition at 3 mg/kg: 28%
  inhibition at 6 mg/kg: 47%
pT308 AKT; 1 hr post dose
  inhibition at 3 mg/kg: 7%
  inhibition at 6 mg/kg: 41%
  inhibition at 10 mg/kg: 71%
pT308 AKT; 3 hr post dose
  inhibition at 3 mg/kg: 7%
pT308 AKT; 2 hr post dose
  inhibition at 6 mg/kg: 32%
  inhibition at 10 mg/kg: 53%
pT308 AKT; 6 hr post dose
  inhibition at 6 mg/kg: -4%
pT308 AKT; 12 hr post dose
  inhibition at 6 mg/kg: -16%
pT308 AKT; 8 hr post dose
  inhibition at 10 mg/kg: 13%
